Assays:
CCR5 = assay: Selectivity index, ratio of CC50 for human TZM-bl cells to EC50 for CCR5 in human TZM-bl cells infected with CCR5-tropic HIV-1 Bal assessed as inhibition of viral entry; format: toxicity, cell-based; conditions: read-out: Ratio CC50/EC50
[1] = Binding affinity to HIV1 integrase by surface plasma resonance method; design: species or system Human immunodeficiency virus
TZM = assay: Cytotoxicity against human TZM-bl cells after 3 days by XTT assay; format: cell-based; conditions: 72 h

Kd [1]	Compound	selectivity ratio (CCR5)	Activity (TZM)
–	COc1ccc(C(=O)Nc2ccc(CCC(=O)CCc3ccc(O)c(O)c3)cc2)cc1	< 5	–
43.2 µM	COc1ccc(C(=O)Nc2ccc(CCC(=O)/C=C/c3ccc(O)c(O)c3)cc2)cc1	7	–
–	O=C(CCc1ccc(NC(=O)c2ccc([N+](=O)[O-])cc2)cc1)CCc1ccc(O)c(O)c1	6	–
–	CC(=O)Oc1ccc(/C=C/C(=O)CCc2ccc(NC(=O)C3CCCCC3)cc2)cc1OC(C)=O	5	–
89.8 µM	O=C(/C=C/c1ccc(O)c(O)c1)CCc1ccc(NC(=O)C2CCCCC2)cc1	< 3	–
–	CC(=O)Oc1ccc(/C=C/C(=O)CCc2ccc(NC(=O)Cc3cccs3)cc2)cc1OC(C)=O	< 1	–
110 µM	O=C(CCc1ccc(NC(=O)c2ccccc2)cc1)CCc1ccc(O)c(O)c1	26	–
2.4 µM	CC(=O)Oc1ccc(CCC(=O)CCc2ccc(NC(=O)c3ccccc3)cc2)cc1OC(C)=O	110	Non-Toxic
–	O=C(/C=C/c1ccc(O)c(O)c1)CCc1ccc(NC(=O)c2ccc([N+](=O)[O-])cc2)cc1	< 1	–
–	CC(=O)Oc1ccc(/C=C/C(=O)CCc2ccc(NC(=O)c3ccc(C)cc3)cc2)cc1OC(C)=O	2	–
–	CC(=O)Oc1ccc(CCC(=O)CCc2ccc(NC(=O)Cc3cccs3)cc2)cc1OC(C)=O	17	–
164 µM	O=C(/C=C/c1ccc(O)c(O)c1)CCc1ccc(NC(=O)c2ccccc2)cc1	< 1	–
–	Cc1nnc(C(C)C)n1[C@@H]1C[C@H]2CC[C@@H](C1)N2CC[C@H](NC(=O)C1CCC(F)(F)CC1)c1ccccc1 [MARAVIROC]	> 1e+06	–
80.9 µM	O=C(CCc1ccc(NC(=O)C2CCCCC2)cc1)CCc1ccc(O)c(O)c1	10	–
–	CC(=O)Oc1ccc(CCC(=O)CCc2ccc(NC(=O)c3ccc([N+](=O)[O-])cc3)cc2)cc1OC(C)=O	15	–
–	CC(=O)Oc1ccc(CCC(=O)CCc2ccc(NC(=O)c3ccc(C)cc3)cc2)cc1OC(C)=O	9	–
–	COc1ccc(C(=O)Nc2ccc(CCC(=O)CCc3ccc(OC(C)=O)c(OC(C)=O)c3)cc2)cc1	21	–
61.3 µM	O=C(/C=C/c1ccc(O)c(O)c1)CCc1ccc(NC(=O)Cc2cccs2)cc1	< 2	–
–	CC(=O)Oc1ccc(CCC(=O)CCc2ccc(NC(=O)C3CCCCC3)cc2)cc1OC(C)=O	14	–
–	Cc1ccc(C(=O)Nc2ccc(CCC(=O)/C=C/c3ccc(O)c(O)c3)cc2)cc1	< 1	–
–	CC(=O)Oc1ccc(/C=C/C(=O)CCc2ccc(NC(=O)c3ccc([N+](=O)[O-])cc3)cc2)cc1OC(C)=O	5	–
–	COc1ccc(C(=O)Nc2ccc(CCC(=O)/C=C/c3ccc(OC(C)=O)c(OC(C)=O)c3)cc2)cc1	12	–
–	CC(=O)Oc1ccc(/C=C/C(=O)CCc2ccc(NC(=O)c3ccccc3)cc2)cc1OC(C)=O	< 5	–
–	Cc1ccc(C(=O)Nc2ccc(CCC(=O)CCc3ccc(O)c(O)c3)cc2)cc1	5	–
–	O=C(CCc1ccc(NC(=O)Cc2cccs2)cc1)CCc1ccc(O)c(O)c1	8	–
